Measured values from the NIST ThermoML archive (doi:10.1016/j.tca.2009.06.004).
± gives the expanded uncertainty stated by the source.

Assay: excess molar enthalpy (molar enthalpy of mixing); xn = mol fraction of the nth substance listed
Settings: 298.15 K, 101 kPa, Liquid, Calvet calorimetry

## OCCO [1,2-ethanediol] + O
x2 = 0.1014
  excess molar enthalpy: -0.0416 ± 0.000717 kcal/mol
x2 = 0.1994
  excess molar enthalpy: -0.0805 ± 0.000956 kcal/mol
x2 = 0.2091
  excess molar enthalpy: -0.0829 ± 0.0012 kcal/mol
x2 = 0.3051
  excess molar enthalpy: -0.115 ± 0.00143 kcal/mol
x2 = 0.3674
  excess molar enthalpy: -0.134 ± 0.00167 kcal/mol
x2 = 0.3995
  excess molar enthalpy: -0.141 ± 0.00167 kcal/mol
x2 = 0.4807
  excess molar enthalpy: -0.153 ± 0.00167 kcal/mol
x2 = 0.5455
  excess molar enthalpy: -0.159 ± 0.00191 kcal/mol
x2 = 0.6144
  excess molar enthalpy: -0.167 ± 0.00191 kcal/mol
x2 = 0.669
  excess molar enthalpy: -0.171 ± 0.00191 kcal/mol
x2 = 0.7949
  excess molar enthalpy: -0.163 ± 0.00191 kcal/mol
x2 = 0.8656
  excess molar enthalpy: -0.136 ± 0.00167 kcal/mol
x2 = 0.915
  excess molar enthalpy: -0.101 ± 0.0012 kcal/mol

## OCCOCCO [diethylene glycol] + O
x2 = 0.1026
  excess molar enthalpy: -0.0657 ± 0.000956 kcal/mol
x2 = 0.2012
  excess molar enthalpy: -0.122 ± 0.00143 kcal/mol
x2 = 0.2094
  excess molar enthalpy: -0.125 ± 0.00143 kcal/mol
x2 = 0.3067
  excess molar enthalpy: -0.177 ± 0.00191 kcal/mol
x2 = 0.4068
  excess molar enthalpy: -0.223 ± 0.00239 kcal/mol
x2 = 0.4937
  excess molar enthalpy: -0.248 ± 0.00263 kcal/mol
x2 = 0.5018
  excess molar enthalpy: -0.255 ± 0.00287 kcal/mol
x2 = 0.6003
  excess molar enthalpy: -0.285 ± 0.00311 kcal/mol
x2 = 0.6996
  excess molar enthalpy: -0.298 ± 0.00311 kcal/mol
x2 = 0.7998
  excess molar enthalpy: -0.28 ± 0.00311 kcal/mol
x2 = 0.8999
  excess molar enthalpy: -0.205 ± 0.00239 kcal/mol
x2 = 0.9002
  excess molar enthalpy: -0.207 ± 0.00239 kcal/mol
x2 = 0.9498
  excess molar enthalpy: -0.129 ± 0.00143 kcal/mol

## OCCOCCO [diethylene glycol] + CCO
x2 = 0.1048
  excess molar enthalpy: 0.0182 ± 0.000478 kcal/mol
x2 = 0.1991
  excess molar enthalpy: 0.0308 ± 0.000478 kcal/mol
x2 = 0.2967
  excess molar enthalpy: 0.0461 ± 0.000717 kcal/mol
x2 = 0.4009
  excess molar enthalpy: 0.0595 ± 0.000956 kcal/mol
x2 = 0.4963
  excess molar enthalpy: 0.0626 ± 0.000956 kcal/mol
x2 = 0.5879
  excess molar enthalpy: 0.0669 ± 0.000956 kcal/mol
x2 = 0.7041
  excess molar enthalpy: 0.0602 ± 0.000956 kcal/mol
x2 = 0.7958
  excess molar enthalpy: 0.0488 ± 0.000717 kcal/mol
x2 = 0.9006
  excess molar enthalpy: 0.0289 ± 0.000478 kcal/mol

## OCCOCCOCCO [triethylene glycol] + CCO
x2 = 0.104
  excess molar enthalpy: 0.028 ± 0.000478 kcal/mol
x2 = 0.2042
  excess molar enthalpy: 0.0586 ± 0.000717 kcal/mol
x2 = 0.301
  excess molar enthalpy: 0.0837 ± 0.0012 kcal/mol
x2 = 0.399
  excess molar enthalpy: 0.104 ± 0.0012 kcal/mol
x2 = 0.5002
  excess molar enthalpy: 0.118 ± 0.00143 kcal/mol
x2 = 0.599
  excess molar enthalpy: 0.121 ± 0.00143 kcal/mol
x2 = 0.6993
  excess molar enthalpy: 0.112 ± 0.00143 kcal/mol
x2 = 0.7995
  excess molar enthalpy: 0.0963 ± 0.0012 kcal/mol
x2 = 0.8992
  excess molar enthalpy: 0.0621 ± 0.000956 kcal/mol

## OCC(O)CO [glycerol] + O
x2 = 0.1028
  excess molar enthalpy: -0.0363 ± 0.000717 kcal/mol
x2 = 0.2192
  excess molar enthalpy: -0.0698 ± 0.000956 kcal/mol
x2 = 0.3038
  excess molar enthalpy: -0.0925 ± 0.0012 kcal/mol
x2 = 0.3964
  excess molar enthalpy: -0.113 ± 0.00143 kcal/mol
x2 = 0.5022
  excess molar enthalpy: -0.131 ± 0.00143 kcal/mol
x2 = 0.5956
  excess molar enthalpy: -0.143 ± 0.00167 kcal/mol
x2 = 0.6991
  excess molar enthalpy: -0.146 ± 0.00167 kcal/mol
x2 = 0.8005
  excess molar enthalpy: -0.134 ± 0.00167 kcal/mol
x2 = 0.8995
  excess molar enthalpy: -0.087 ± 0.0012 kcal/mol

## OCCOCCOCCO [triethylene glycol] + O
x2 = 0.1291
  excess molar enthalpy: -0.105 ± 0.0012 kcal/mol
x2 = 0.2167
  excess molar enthalpy: -0.188 ± 0.00215 kcal/mol
x2 = 0.3145
  excess molar enthalpy: -0.258 ± 0.00287 kcal/mol
x2 = 0.4016
  excess molar enthalpy: -0.32 ± 0.00335 kcal/mol
x2 = 0.5006
  excess molar enthalpy: -0.384 ± 0.00406 kcal/mol
x2 = 0.6006
  excess molar enthalpy: -0.431 ± 0.00454 kcal/mol
x2 = 0.6999
  excess molar enthalpy: -0.448 ± 0.00478 kcal/mol
x2 = 0.7985
  excess molar enthalpy: -0.422 ± 0.00454 kcal/mol
x2 = 0.9013
  excess molar enthalpy: -0.312 ± 0.00335 kcal/mol
